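Cultured in 96-well plates, cells were exposed to test compound for 48 hours across five concentrations. At the GI50, growth is halved. TGI marks complete inhibition of growth.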
Columns and labels:
Assay in all cases: NCI tumour cell line growth inhibition, 48 h
HL-60(TB) leukemia = tested on: HL-60(TB) leukemia
UACC-62 melanoma = tested on: UACC-62 melanoma
MDA-MB-435 = tested on: MDA-MB-435
BT-549 breast = tested on: BT-549 breast
RXF 393 renal = tested on: RXF 393 renal
HCC-2998 colon = tested on: HCC-2998 colon
KM12 colon = tested on: KM12 colon
SF-295 CNS = tested on: SF-295 CNS
OVCAR-5 ovarian = tested on: OVCAR-5 ovarian
LOX IMVI melanoma = tested on: LOX IMVI melanoma

Row | Structure (SMILES) | TGI (HL-60(TB) leukemia) [µM] | TGI (UACC-62 melanoma) [µM] | TGI (MDA-MB-435) [µM] | TGI (BT-549 breast) [µM] | TGI (RXF 393 renal) [µM] | TGI (HCC-2998 colon) [µM] | TGI (KM12 colon) [µM] | TGI (SF-295 CNS) [µM] | TGI (OVCAR-5 ovarian) [µM] | TGI (LOX IMVI melanoma) [µM] | GI50 (HL-60(TB) leukemia) [µM] | GI50 (UACC-62 melanoma) [µM] | GI50 (MDA-MB-435) [µM] | GI50 (BT-549 breast) [µM] | GI50 (HCC-2998 colon) [µM] | GI50 (KM12 colon) [µM] | GI50 (SF-295 CNS) [µM] | GI50 (OVCAR-5 ovarian) [µM]
1 | c1ccc(CCNCc2ccco2)nc1 | > 100 | > 100 | > 100 | > 100 | > 100 | > 100 | > 100 | > 100 | > 100 | > 100 |  |  |  |  |  |  |  | 
2 | O=C1CCC2(CCO1)OCCO2 | > 100 | > 100 | > 100 | > 100 | > 100 | > 100 | > 100 | > 100 | > 100 | > 100 |  |  |  |  |  |  |  | 
3 | O=C1C=CC(=O)C(CNc2ccc(C(=O)OC34CC5CC(CC(C5)C3)C4)cc2)=C1 | > 21.6 | 16.5 | 23 | 15.7 | 4.51 | 32.4 | 22.5 | 39.2 | 39.2 | 15.2 |  |  |  |  |  |  |  | 
4 | COc1cccc(CC(C)NCC(O)c2ccc(O)c(O)c2)c1 (stereo unspecified) |  | > 100 | > 100 | > 100 | > 100 |  | > 100 | > 100 | 47.4 | > 100 |  |  |  |  |  |  |  | 
5 | CC(C)=CCC[C@@H](C)C1=C(Nc2ccccc2Cl)C(O)=C(C)C(=O)C1=O | 2.94 | 18 | 36.1 | 36.3 | 32.7 | 31 | 17.7 | 14 | > 52 | 98.4 |  |  |  |  |  |  |  | 
6 | Cc1nc2c3c(ncn2n1)Oc1c(c(-c2ccccc2)nn1-c1ccccc1)C3c1ccc(Cl)cc1 (stereo unspecified) |  | > 100 | > 100 |  | > 100 | > 100 | > 100 | > 100 | > 100 | > 100 |  |  |  |  |  |  |  | 
7 | Cc1ccc(C(=O)O)c(CC2Cc3c(C)cccc3C2=O)c1 (stereo unspecified) | > 100 | > 100 | > 100 | > 100 | > 100 | > 100 | > 100 | > 100 | > 100 | > 100 |  |  |  |  |  |  |  | 
8 | Cc1cccc2c1[nH]c1[nH]c(=O)[nH]c(=O)c12 | > 100 | > 100 | > 100 | > 100 | > 100 |  | > 100 | > 100 | > 100 | > 100 |  |  |  |  |  |  |  | 
9 | C(=C\c1cccc(/C=C/c2ccccn2)n1)/c1ccccn1 | > 100 | 83.1 | > 100 | 40.9 | > 100 | > 100 | > 100 | > 100 | > 100 | > 100 |  |  |  |  |  |  |  | 
10 | N#Cc1nc(CCCCCN2C(=O)c3ccccc3C2=O)oc1N |  |  | > 100 | > 100 | > 100 | > 100 | > 100 | > 100 | > 100 | > 100 |  |  |  |  |  |  |  | 
11 | O=C(NCc1cccc(C(F)(F)F)c1)c1cc2sccc2nc1C(F)(F)F |  | > 100 | > 100 | > 100 | > 100 |  | > 100 | > 100 | > 100 |  |  |  |  |  |  |  |  | 
12 | Cc1ccc(C2=NOC(=O)[C@@H]3CCCC[C@@H]23)cc1 | > 100 | > 100 | > 100 | > 100 | > 100 | > 100 | > 100 | > 100 | > 100 | > 100 |  |  |  |  |  |  |  | 
13 | N=C1N(S(=O)(=O)c2ccccc2)[C@@H](Cc2ccccc2)[C@H](c2ccccc2)C1(c1ccccc1)c1ccccc1 | > 100 | > 100 | > 100 | > 100 | > 100 | > 100 | > 100 | > 100 | > 100 | > 100 |  |  |  |  |  |  |  | 
14 | C=C(CCC(C)C1CCC2C3=C(C(=O)CC21C)C1(C)CCC(=O)[C@@H](C)C1CC3=O)C(C)C(=O)O (stereo partly specified) | 32.6 | > 100 | > 100 | > 100 | 57.4 | > 100 | > 100 | > 100 | > 100 | 33.8 |  |  |  |  |  |  |  | 
15 | CN1CCN(c2c(Cl)cc(Cl)c3[nH]c4ccccc4c(=O)c23)CC1 | 4.63 | 18.6 | 19.8 | 31.2 | 25.2 | 19.4 | 23 | 20.3 | 29.3 | > 42.6 |  |  |  |  |  |  |  | 
16 | CC[N+]1(C)CCC(O)(/C=C/c2ccc(OC)cc2)C(C(=O)/C=C/c2ccc(OC)cc2)C1 (stereo unspecified) | 5.03 | 43.8 | 28.2 | 49.7 | 28.4 | 46.4 | 16.8 | 39.1 | 44.1 | > 22.5 |  |  |  |  |  |  |  | 
17 | CCOC(=O)C1(C(=O)OCC)[C@H](c2ccccc2)C2=NO[C@@H]3CCC[C@H]1[C@H]23 | > 100 | > 100 | 51.5 | > 100 | > 100 | 60 | > 100 | > 100 | > 100 | > 100 |  |  |  |  |  |  |  | 
18 | CN(C)CCNC(=O)c1ccc(NCCCN(C)CCCNc2ccc3c(=O)n(CCN(C)C)c(=O)n4c5ccccc5c(=O)c2c34)c2c(=O)c3ccccc3[nH]c12 | 0.273 | 0.239 | 0.18 | 1.25 | 0.271 | 0.146 | 0.319 | 1.06 | 0.68 | 0.119 |  |  |  |  |  |  |  | 
19 | CCOC(=O)C(NC(=O)N(C1=NCC(C)S1)C1CCCCC1)(OC)C(F)(F)F (stereo unspecified) | 59.5 | > 100 | > 100 | > 100 | 45.5 | > 100 | > 100 | > 100 | > 100 | 60.8 |  |  |  |  |  |  |  | 
20 | COC(=O)[C@H]1[C@@H](C(C)C)O[C@@H](C(C)C)O[C@H]1C(F)(F)F | > 100 | > 100 | > 100 | > 100 | > 100 | > 100 | > 100 | > 100 | > 100 | > 100 |  |  |  |  |  |  |  | 
21 | C[C@@H](O)C(=O)N1[C@@H]2CC3CC[C@]2(CS1(=O)=O)C3(C)C | > 100 | > 100 | > 100 | > 100 | > 100 | > 100 | > 100 | > 100 | > 100 | > 100 |  |  |  |  |  |  |  | 
22 | Clc1ccc(N2N=C(c3cccc(Nc4ccncc4)c3)CC2c2ccc3c(c2)OCO3)cc1 (stereo unspecified) | 4.16 | 3.32 | 3.02 | 28.6 |  | 3.2 | 3.18 | 3.29 | 5.69 |  | 1.93 | 1.76 | 1.53 | 4.92 | 1.79 | 1.67 | 1.79 | 2.11
